Read-outs that look alike come from different tables or passages of the source.
Columns and labels:
[1] = test system: recombinant vaccinia virus strain WR (VACV-WR) 'v3' expressing firefly luciferase, in RK13 cells; test: microbe, parasite or virus in culture; format: cell-based; conditions: for activity at 10 µM: Orthopoxvirus vaccinia, RK-13, 2 h, read-out: VV % activity at 10 μM (a)
[2] = test system: wildtype measles virus strain WTFb in B95a marmoset B lymphocytes; test: Measles syncytium reduction assay; format: cell-based; conditions: for Measles IC100/μM (b): concentration giving total suppression of syncytia formation, B95a cells, 50 syncytium forming units per well; for potency with respect to measles virus: statement in words on Table I data
[3] = test system: VACV-WR in BSC-1 cells; test: microbe, parasite or virus in culture; format: cell-based, vaccinia virus; conditions: read-out: VV plaque size IC50 μM (c)

| SMILES | activity at 10 µM [1] | also measured |
| --- | --- | --- |
| COCCCCCCCCCCCCCc1cc2cn([C@@H]3CC[C@H](CO)O3)c(=O)nc2o1 [Cf 3254, 3-(2′,3′-dideoxy-ribo-β-L-furanosyl)-6-methyloxytridecylfuro[2,3-d]pyrimidin-2(3H)-one] | 59% | – |
| CCOCCCCCCCCCc1cc2cn([C@@H]3CC[C@H](CO)O3)c(=O)nc2o1 [Cf 3210, 3-(2′,3′-dideoxy-ribo-O-L-furanosyl)-6-ethyloxynonylfuro[2,3-d]pyrimidin 2(3H)-one] | 72% | – |
| CCCCCCCCCCc1cc2cn([C@@H]3CC[C@H](CO)O3)c(=O)nc2o1 [Cf 3155, 3-(2′,3′-dideoxy-ribo-β-Lfuranosyl)-6-decylfuro[2,3-d]pyrimidin-2(3H)-one] | 24% | potency with respect to vaccinia virus compared to comparative compound Cf2095 [1]: greatly enhanced potency |
| CCCCCCOCCCCCCCCc1cc2cn([C@@H]3CC[C@H](CO)O3)c(=O)nc2o1 [Cf 3230, 3-(2′,3′-dideoxy-ribo-β-L-furanosyl)-6-hexyloxyoctylfuro[2,3-d]pyrimidin-2(3H)-one] | 29% | – |
| CCCCCCc1cc2cn([C@@H]3CC[C@H](CO)O3)c(=O)nc2o1 [Cf 3153, 3-(2′,3′-dideoxy-ribo-β-L-furanosyl)-6-hexylfuro[2,3-d]pyrimidin-2(3H)-one] | 50% | – |
| CCCCCCCc1cc2cn([C@@H]3CC[C@H](CO)O3)c(=O)nc2o1 [Cf 3174, 3-(2′,3′-dideoxy-ribo-β-L-furanosyl)-6-septylfuro[2,3-d]pyrimidin-2(3H)-one] | 41% | – |
| CCCCCCOCCCCCCCCCc1cc2cn([C@@H]3CC[C@H](CO)O3)c(=O)nc2o1 [Cf 3209, 3-(2′,3′-dideoxy-ribo-β-L-furanosyl)-6-hexyloxynonylfuro[2,3-d]pyrimidin-2(3H)-one] | 46% | – |
| CCCCCCCCc1cc2cn([C@@H]3CC[C@H](CO)O3)c(=O)nc2o1 [Cf 3154, 3-(2′,3′-dideoxy-ribo-β-L-furanosyl)-6-octylfuro[2,3-d]pyrimidin-2(3H)-one] | 23% | potency with respect to vaccinia virus compared to comparative compound Cf2095 [1]: greatly enhanced potency |
| CCCOCCCCCCCCCc1cc2cn([C@@H]3CC[C@H](CO)O3)c(=O)nc2o1 [Cf 3204, 3-(2′,3′-dideoxy-ribo-β-L-furanosyl)-6-propyloxynonylfuro[2,3-d]pyrimidin-2(3H)-one] | 41% | – |
| CCCCCCCCCc1cc2cn([C@@H]3CC[C@H](CO)O3)c(=O)nc2o1 [Cf 3175, 3-(2′,3′-dideoxy-ribo+L-furanosyl)-6-nonylfuro[2,3-d]pyrimidin-2(3H)-one] | 24% | potency with respect to vaccinia virus compared to comparative compound Cf2095 [1]: greatly enhanced potency; Measles IC100/μM (b) [2]: 5 to 10 µM |
| CCCCCOCCCCCCCCCc1cc2cn([C@H]3CC[C@@H](CO)O3)c(=O)nc2o1 [Cf 2095, reference compound] | – | VV % activity at 10 μM (a) [1]: 75%; Measles IC100/μM (b) [2]: Inactive; potency with respect to measles virus [2]: inactive; IC50 [3]: 1.5 µM |
| CCCCCOCCCCCCCCCc1cc2cn([C@@H]3CC[C@H](CO)O3)c(=O)nc2n1C [Cf 3242, 3-(2′,3′-dideoxy-ribo-β-L-furanosyl)-6-pentyloxynonyl-N-methyl-pyrrolo[2,3-d]pyrimidin-2(3H)-one] | 15% | potency with respect to vaccinia virus compared to comparative compound Cf2095 [1]: greatly enhanced potency; Measles IC100/μM (b) [2]: 5 to 10 µM |
| CCCCOCCCCCCCCCc1cc2cn([C@@H]3CC[C@H](CO)O3)c(=O)nc2o1 [Cf 3207, 3-(2′,3′-dideoxy-ribo-β-L-furanosyl)-6-butyloxynonylfuro[2,3-d]pyrimidin-2(3H)-one] | 29% | – |
| CCCCCCCCCCCCc1cc2cn([C@@H]3CC[C@H](CO)O3)c(=O)nc2o1 [Cf 3156, 3-(2′,3′-dideoxy-ribo-β-L-furanosyl)-6-dodecylfuro[2,3-d]-pyrimidin-2(3H)-one] | 65% | – |
| CCCCc1ccc(-c2cc3cn([C@@H]4CC[C@H](CO)O4)c(=O)nc3o2)cc1 [Cf 3176, 3-(2′,3′-dideoxy-ribo-β-L-furanosyl)-6-(4-n-butylphenyl)[2,3-d]pyrimidin-2(3H)-one] | 44% | – |
| CCCCCCCCCCOCCCCc1cc2cn([C@@H]3CC[C@H](CO)O3)c(=O)nc2o1 [Cf 3231, 3-(2′,3′-dideoxy-ribo-β-L-furanosyl)-6-decyloxybutylfuro[2,3-d]pyrimidin-2(3H)-one] | 26% | – |
| CCCCCCCCCCCCCOCc1cc2cn([C@@H]3CC[C@H](CO)O3)c(=O)nc2o1 [Cf 3232, 3-(2′,3′-dideoxy-ribo-β-L-furanosyl)-6-tridecyloxymethylfuro[2,3-d]pyrimidin-2(3H)-one] | 45% | Measles IC100/μM (b) [2]: 1 to 5 µM; potency with respect to measles virus [2]: significant potency |
| CCCCCOCCCCCCCCCc1cc2cn([C@@H]3CC[C@H](CO)O3)c(=O)nc2[nH]1 [Cf 3253, 3-(2′,3′-dideoxy-ribo-β-L-furanosyl)-6-pentyloxynonyl-pyrrolo[2,3-d]pyrimidin-2(3H)-one] | 52% | – |
| CCCCCOCCCCCCCCCc1cc2cn([C@@H]3CC[C@H](CO)O3)c(=O)nc2o1 [Cf 3208, 3-(2′,3′-dideoxy-ribo-β-L-furanosyl)-6-pentyloxynonylfuro[2,3-d]pyrimidin-2(3H)-one] | 24% | potency with respect to vaccinia virus compared to comparative compound Cf2095 [1]: greatly enhanced potency; Measles IC100/μM (b) [2]: 1 to 5 µM; potency with respect to measles virus [2]: significant potency; IC50 ([3]; Orthopoxvirus vaccinia, BSC-1, 72 h): 0.1 µM |
| CCCCCc1ccc(-c2cc3cn([C@@H]4CC[C@H](CO)O4)c(=O)nc3o2)cc1 [Cf 3177, 3-(2′,3′-dideoxy-ribo-D-L-furanosyl)-6-(4-n-pentylphenyl) [2,3-d]pyrimidin-2(3H)-one] | 47% | – |

Source: patent US8551966B2, “Chemical compounds” (priority 2011, dated 2013)
